Laboratory results reported in patent US9265845B2, “Imaging methods using engineered integrin binding peptides” (The Board of Trustees of the Leland Stanford Junior …, priority 2006, dated 2016).
Positions of bridges follow the written chain, without caps; N, C: chain ends. Residues, ends and D or L forms follow the SMILES beside them. No end group written: not given here.

How the values were obtained:
[1] = test system: U87MG glioblastoma cells; experiment: Direct equilibrium binding titration on U87MG glioblastoma cells; conditions: for Kd: recombinant peptides with FLAG and His tags, 3 h at 4° C.
Protocol: Direct equilibrium binding titrations of the recombinant engineered AgRP peptides were performed on U87MG glioblastoma cells. Peptides were incubated with cells for 3 h at 4° C., followed by staining with a fluorescein-conjugated anti-His antibody and analysis by flow cytometry. Equilibrium binding constant (KD) values were obtained by fitting plots of concentration versus mean fluorescence intensity to a sigmoidal curve using KaleidaGraph software.
(§1) All cell lines were cultured at 37° C. with 5% CO2. Adherent U87MG cells were obtained from ATCC and cultured in DMEM media (Gibco 11995) supplemented with 10% fetal bovine serum. Untransfected K562 cells (α5 β1-positive) were obtained from ATCC and cultured in suspension in IMDM media (Gibco 12440) supplemented with 10% fetal bovine serum. K562 cells stably transfected with αv β3, αv β5, or αiib β3 integrins were obtained from S. Blystone (Blystone, S. D., Graham, I. L., Lindberg, F. P. & Brown, E. J. (1994). Integrin avb3 differentially regulates adhesive and phagocytic functions of the fibronectin receptor a5b1. J. Cell Biol. 127, 1129-1137) and were grown in media supplemented with 10 μg/mL geneticin. Equilibrium binding assays were performed with 10^5 cells per reaction. Cells were suspended in IBB with varying amounts of engineered AgRP peptide at 4° C. for 3 h with gentle rocking. The cells were washed and resuspended in BPBS with a 1:40 dilution of fluorescein-conjugated anti-6×-His antibody (Bethyl A190-113F) and incubated on ice for 20 min. After washing, the cells were analyzed by flow cytometry using a BD FACSCalibur instrument and CellQuest software (Becton Dickinson, Franklin Lakes, N.J.). Mean fluorescence intensity values for each cell population was plotted against concentration on a log scale. Data was fit to sigmoidal curves to obtain equilibrium dissociation constants using KaleidaGraph (Synergy Software), and is presented as average values with standard deviations. Each assay was performed a minimum of three times.

[2] = test system: K562-αvβ3 cells; experiment: Equilibrium binding to K562 cells expressing αvβ3 integrin; conditions: recombinant peptides with FLAG and His tags
Protocol: To determine the binding specificities of the AgRP peptides for αvβ3 integrin versus the αvβ5 and α5β1 integrins also expressed on U87MG cells, K562 leukemia cells that had been stably transfected with individual α and β integrin subunits were used. The engineered AgRP peptides were tested for binding to untransfected K562 cells, which intrinsically express α5β1 integrin. Equilibrium binding assays were performed on the untransfected K562 cells as described above for the U87MG cells. Three peptide concentrations were tested. Negligible signal over background levels (cells stained with fluorescein-conjugated anti-His antibody alone) even at 500 nM, the highest concentration tested, was observed.
The engineered AgRP peptides were tested for binding to K562 cells expressing αvβ5 αiiiβ3 or αvβ3 integrins. The peptides were tested at three concentrations with very little signal over background for cells expressing αvβ5 integrin, even at 500 nM, the highest concentration. The peptides bound weakly to the K562 cells expressing αiiβ3 integrins and, as expected, strongly to the K562 cells expressing αvβ3 integrins. In order to determine KD values for the engineered AgRP peptides against K562-αiiβ3 and K562-αvβ3 cells, binding titrations were done over a larger range of concentrations. […] KD values for peptide binding to K562-αiibβ3 cells could not be determined because binding was still increasing at the highest concentration (5 μM) of peptides tested.
as §1, with “Data was fit to sigmoidal curves to obtain equilibrium dissociation constants using KaleidaGraph (Synergy Software), and is presented as average values with standard deviations. Each assay was performed a minimum of three times.” left out

[3] = target: αvβ3 integrin (Homo sapiens, UniProt P05106+P06756); experiment: Competition of 125I-echistatin to detergent-solubilized plate-coated integrin; format: binding; conditions: 0.06 nM 125I echistatin, 5 nM and 50 nM peptide
Protocol: (§2) FIG. 10A through FIG. 10D is a series of histograms showing binding specificities to integrins αvβ3, αvβ5, α5β1, and αiibβ3 for engineered EETI-RGD peptides compared to controls. Error bars represent experiments performed in triplicate. Competition binding of 0.06 nM ^125I echistatin with 5 nM (black bars) and 50 nM (grey bars) unlabeled peptide to plate-coated integrins was measured. […] The engineered peptides have very little binding to αiibβ3 integrin.
(§3) This was done by competition of ^125I-echistatin to detergent-solubilized integrin receptors coated onto microtiter plates (see FIG. 10). […] This is consistent with previous studies which have shown αv integrin receptors can accommodate a wide range of RGD-containing cyclic structures. […] However, since α5β1 integrins are expressed on many tumors and are all involved in mediating angiogenesis and metastasis, a broad spectrum agent that targets all three integrins will be useful for diagnostic and therapeutic applications. With the exception of echistatin, all of the RGD-containing peptides bound weakly to the αiibβ3 receptor, showing the specificity of the present peptides for the αv and α5-containing integrin heterodimers. This characteristic is valuable for molecular imaging and therapeutic applications, since binding to αiibβ3 on platelet cells prevents blood clotting and would lead to non-specific in vivo effects.

[4] = target: α5β1 integrin (Homo sapiens, UniProt P05556+P08648); experiment: as above; format: binding; conditions: 0.06 nM 125I echistatin, 5 nM and 50 nM peptide
Protocol: as §2, §3

[5] = target: αiibβ3 integrin (Homo sapiens, UniProt P05106+P08514); experiment: as above; format: binding; conditions: 0.06 nM 125I echistatin, 5 nM and 50 nM peptide
Protocol: as §2, §3

[6] = target: αvβ5 integrin (Homo sapiens, UniProt P06756+P18084); experiment: as above; format: binding; conditions: 0.06 nM 125I echistatin, 5 nM and 50 nM peptide
Protocol: as §2, §3

α5β1 integrin, sequence (P08648 42-894 limits assumed): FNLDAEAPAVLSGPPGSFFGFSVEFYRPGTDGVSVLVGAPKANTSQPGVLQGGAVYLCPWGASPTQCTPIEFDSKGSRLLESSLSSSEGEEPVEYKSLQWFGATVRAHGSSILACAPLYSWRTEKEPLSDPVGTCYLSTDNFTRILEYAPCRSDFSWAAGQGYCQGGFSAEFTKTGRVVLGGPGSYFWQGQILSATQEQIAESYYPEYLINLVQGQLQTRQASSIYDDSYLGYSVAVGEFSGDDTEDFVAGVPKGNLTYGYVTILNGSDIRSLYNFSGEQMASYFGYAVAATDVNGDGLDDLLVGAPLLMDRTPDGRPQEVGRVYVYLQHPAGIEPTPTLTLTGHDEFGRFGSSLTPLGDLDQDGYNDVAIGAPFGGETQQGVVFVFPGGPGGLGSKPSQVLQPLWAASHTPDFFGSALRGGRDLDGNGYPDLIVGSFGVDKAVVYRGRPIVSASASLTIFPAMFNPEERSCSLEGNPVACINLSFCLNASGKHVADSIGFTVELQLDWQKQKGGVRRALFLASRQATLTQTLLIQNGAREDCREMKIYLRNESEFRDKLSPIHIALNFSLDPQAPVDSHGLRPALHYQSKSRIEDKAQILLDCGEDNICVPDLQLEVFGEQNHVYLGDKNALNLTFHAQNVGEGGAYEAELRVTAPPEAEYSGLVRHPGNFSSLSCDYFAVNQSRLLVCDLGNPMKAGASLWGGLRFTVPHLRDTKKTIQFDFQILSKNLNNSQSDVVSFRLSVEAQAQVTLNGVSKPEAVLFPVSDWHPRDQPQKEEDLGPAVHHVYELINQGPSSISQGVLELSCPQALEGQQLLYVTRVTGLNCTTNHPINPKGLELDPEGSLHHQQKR
α5β1 integrin, sequence (P08648 895-1049 partner limits assumed): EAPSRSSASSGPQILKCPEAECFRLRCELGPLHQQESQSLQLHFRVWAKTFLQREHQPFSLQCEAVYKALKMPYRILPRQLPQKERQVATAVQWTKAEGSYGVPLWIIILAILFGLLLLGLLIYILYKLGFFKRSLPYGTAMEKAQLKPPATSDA
α5β1 integrin, sequence (P05556 21-798): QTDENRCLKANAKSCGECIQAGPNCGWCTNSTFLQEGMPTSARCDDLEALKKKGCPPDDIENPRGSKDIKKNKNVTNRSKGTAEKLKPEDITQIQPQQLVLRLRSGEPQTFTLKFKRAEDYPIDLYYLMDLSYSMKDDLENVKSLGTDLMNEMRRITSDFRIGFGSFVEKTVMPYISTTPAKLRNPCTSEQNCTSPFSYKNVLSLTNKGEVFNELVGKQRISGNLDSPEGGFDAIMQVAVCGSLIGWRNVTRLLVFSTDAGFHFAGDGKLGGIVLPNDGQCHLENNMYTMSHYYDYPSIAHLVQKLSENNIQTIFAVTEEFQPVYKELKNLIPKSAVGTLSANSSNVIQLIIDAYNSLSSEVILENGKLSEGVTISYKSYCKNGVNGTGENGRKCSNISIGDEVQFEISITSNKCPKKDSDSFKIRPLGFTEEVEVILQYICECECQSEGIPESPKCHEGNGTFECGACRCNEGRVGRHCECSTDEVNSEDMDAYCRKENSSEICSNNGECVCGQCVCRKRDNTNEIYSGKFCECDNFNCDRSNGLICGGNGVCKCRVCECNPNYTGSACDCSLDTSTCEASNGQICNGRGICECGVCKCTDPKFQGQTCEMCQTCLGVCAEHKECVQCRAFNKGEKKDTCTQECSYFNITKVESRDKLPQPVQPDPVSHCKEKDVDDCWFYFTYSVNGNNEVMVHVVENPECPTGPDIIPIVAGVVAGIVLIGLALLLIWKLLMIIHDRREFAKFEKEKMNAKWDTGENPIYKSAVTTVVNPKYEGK
αvβ5 integrin, sequence (P06756 31-889 limits assumed): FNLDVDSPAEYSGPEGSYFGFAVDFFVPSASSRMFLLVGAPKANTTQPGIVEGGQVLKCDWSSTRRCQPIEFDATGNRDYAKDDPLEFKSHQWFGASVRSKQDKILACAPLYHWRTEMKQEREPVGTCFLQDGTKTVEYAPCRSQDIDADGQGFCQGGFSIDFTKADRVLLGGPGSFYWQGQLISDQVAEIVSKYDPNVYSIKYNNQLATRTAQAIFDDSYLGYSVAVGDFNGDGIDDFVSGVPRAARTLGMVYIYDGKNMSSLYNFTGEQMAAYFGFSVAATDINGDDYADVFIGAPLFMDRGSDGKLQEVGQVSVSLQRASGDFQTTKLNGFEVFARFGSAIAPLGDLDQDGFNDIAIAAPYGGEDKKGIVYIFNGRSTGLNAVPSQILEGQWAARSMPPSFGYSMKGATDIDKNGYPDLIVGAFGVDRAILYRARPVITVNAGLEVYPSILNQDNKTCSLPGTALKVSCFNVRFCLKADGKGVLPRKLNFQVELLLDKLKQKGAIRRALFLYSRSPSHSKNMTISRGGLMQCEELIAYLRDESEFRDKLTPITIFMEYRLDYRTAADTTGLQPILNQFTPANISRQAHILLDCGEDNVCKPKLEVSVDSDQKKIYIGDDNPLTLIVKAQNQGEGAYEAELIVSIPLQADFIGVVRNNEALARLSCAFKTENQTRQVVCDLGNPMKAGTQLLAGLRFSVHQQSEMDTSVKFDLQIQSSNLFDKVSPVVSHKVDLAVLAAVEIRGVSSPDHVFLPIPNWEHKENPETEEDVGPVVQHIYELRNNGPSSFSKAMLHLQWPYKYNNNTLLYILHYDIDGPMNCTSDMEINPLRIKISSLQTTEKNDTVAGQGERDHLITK
αvβ5 integrin, sequence (P06756 891-1048 partner limits assumed): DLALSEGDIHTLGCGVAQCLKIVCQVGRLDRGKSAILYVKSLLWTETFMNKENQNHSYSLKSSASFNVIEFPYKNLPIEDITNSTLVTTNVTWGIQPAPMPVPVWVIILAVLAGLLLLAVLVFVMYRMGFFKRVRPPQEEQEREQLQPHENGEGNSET
αvβ5 integrin, sequence (P18084 24-799): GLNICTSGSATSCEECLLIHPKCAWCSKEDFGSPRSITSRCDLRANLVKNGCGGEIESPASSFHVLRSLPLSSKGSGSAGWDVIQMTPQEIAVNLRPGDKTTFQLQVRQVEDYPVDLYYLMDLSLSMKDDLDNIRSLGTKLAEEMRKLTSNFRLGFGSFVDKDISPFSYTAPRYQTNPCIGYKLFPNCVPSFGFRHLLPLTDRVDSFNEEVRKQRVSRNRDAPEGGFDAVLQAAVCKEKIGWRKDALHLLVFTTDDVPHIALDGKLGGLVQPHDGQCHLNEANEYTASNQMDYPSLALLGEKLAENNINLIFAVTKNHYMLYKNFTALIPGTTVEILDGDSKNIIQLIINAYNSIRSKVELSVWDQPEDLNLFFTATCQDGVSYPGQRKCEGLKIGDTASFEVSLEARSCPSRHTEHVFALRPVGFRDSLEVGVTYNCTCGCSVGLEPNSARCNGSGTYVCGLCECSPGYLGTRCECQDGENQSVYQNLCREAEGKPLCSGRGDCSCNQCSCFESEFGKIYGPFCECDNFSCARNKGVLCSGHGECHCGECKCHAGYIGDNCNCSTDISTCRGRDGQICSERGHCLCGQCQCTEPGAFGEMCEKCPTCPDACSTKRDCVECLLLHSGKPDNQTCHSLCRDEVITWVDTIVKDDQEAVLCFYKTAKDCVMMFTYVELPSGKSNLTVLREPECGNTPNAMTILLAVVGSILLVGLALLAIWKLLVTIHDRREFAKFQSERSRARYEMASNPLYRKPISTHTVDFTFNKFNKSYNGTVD
αvβ3 integrin, sequence (P06756 31-889 limits assumed): as the sequence (P06756 31-889 limits assumed) above
αvβ3 integrin, sequence (P06756 891-1048 partner limits assumed): as the sequence (P06756 891-1048 partner limits assumed) above
αvβ3 integrin, sequence (P05106 27-788): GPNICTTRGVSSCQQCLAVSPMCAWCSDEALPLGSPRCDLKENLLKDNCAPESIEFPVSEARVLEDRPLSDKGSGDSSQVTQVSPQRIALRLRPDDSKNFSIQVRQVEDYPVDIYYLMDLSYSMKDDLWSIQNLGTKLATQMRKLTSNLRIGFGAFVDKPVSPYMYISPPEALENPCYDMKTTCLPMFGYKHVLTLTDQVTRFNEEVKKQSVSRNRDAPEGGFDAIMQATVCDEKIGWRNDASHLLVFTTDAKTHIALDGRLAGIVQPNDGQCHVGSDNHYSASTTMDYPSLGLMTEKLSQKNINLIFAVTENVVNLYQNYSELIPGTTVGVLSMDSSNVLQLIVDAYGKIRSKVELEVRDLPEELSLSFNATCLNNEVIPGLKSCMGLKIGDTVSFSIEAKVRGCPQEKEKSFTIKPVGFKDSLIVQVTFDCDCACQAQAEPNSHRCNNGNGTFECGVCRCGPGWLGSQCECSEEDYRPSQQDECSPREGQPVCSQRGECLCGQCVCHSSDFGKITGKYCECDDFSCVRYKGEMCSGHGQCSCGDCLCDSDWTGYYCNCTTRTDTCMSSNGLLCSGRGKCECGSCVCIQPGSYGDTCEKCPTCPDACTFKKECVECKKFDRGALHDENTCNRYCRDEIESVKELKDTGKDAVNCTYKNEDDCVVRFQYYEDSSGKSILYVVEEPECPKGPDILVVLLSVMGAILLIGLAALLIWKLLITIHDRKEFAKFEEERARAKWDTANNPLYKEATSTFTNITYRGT

| Compound | Kd [1] [nM] | Kd [2] [nM] | binding to αvβ3 integrin, in words [3] | binding to α5β1 integrin, in words [4] | binding to αiibβ3 integrin, in words [5] | binding to αvβ5 integrin, in words [6] | fold improvement in affinity over the worst binder, 6C [1] [fold] |
| --- | --- | --- | --- | --- | --- | --- | --- |
| CC(C)C[C@@H]1NC(=O)[C@@H]2CSSC[C@@H]3NC(=O)[C@H]([C@@H](C)O)NC(=O)[C@H](C)NC(=O)[C@H](C)NC(=O)[C@@H]4CCCN4C(=O)[C@H](CC(=O)O)NC(=O)[C@H](CSSC[C@H](NC(=O)CN)C(=O)N[C@@H](C(C)C)C(=O)N[C@@H](CCCNC(=N)N)C(=O)N[C@@H](CC(C)C)C(=O)N[C@@H](Cc4c[nH]cn4)C(=O)N[C@@H](CCC(=O)O)C(=O)N[C@@H](CO)C(=O)N2)NC(=O)[C@H](CSSC[C@@H](C(=O)N[C@@H](CCCNC(=N)N)C(=O)O)NC(=O)[C@H](Cc2ccc(O)cc2)NC(=O)[C@@H]2CSSC[C@H](NC(=O)[C@H](Cc4ccc(O)cc4)NC3=O)C(=O)N[C@@H]([C@@H](C)O)C(=O)NCC(=O)N[C@@H](CCCNC(=N)N)C(=O)NCC(=O)N[C@@H](CC(=O)O)C(=O)N[C@@H](CCC(=O)O)C(=O)N[C@@H](CCCCN)C(=O)N[C@@H](CC(C)C)C(=O)N[C@@H](CCCNC(=N)N)C(=O)N2)NC(=O)[C@@H]2CCCN2C(=O)[C@H](C(C)C)NC(=O)[C@H](CCC(N)=O)NC(=O)[C@H](CCC(N)=O)NC(=O)CNC1=O [6C] (H-GCVRLHESCLGQQVPCCDPAATCYCTGRGDEKLRCYCR-OH; disulfide 2-17, 9-23, 16-37, 25-35; N-terminus and C-terminus assumed) | 13 ± 2 | 15 ± 4 | – | – | – | – | – |
| DOTA-conjugated FN-RDG2: DOTA conjugate of negative control with RGD switched to RDG (GCVTGRDGSPASSCSQDSDCLAGCVCGPNGFCG; cysteine pairing not given here; also: DOTA conjugate, position not given here) | – | – | did not bind | did not bind | did not bind | did not bind | – |
| CSCC[C@@H]1NC(=O)[C@H](CC(=O)O)NC(=O)[C@H](CCCNC(=N)N)NC(=O)[C@H](CC(=O)O)NC(=O)CNC(=O)[C@H](CCCNC(=N)N)NC(=O)CNC(=O)[C@H](CCC(=O)O)NC(=O)[C@@H]2CSSC[C@H](NC(=O)[C@H](CCCCN)NC1=O)C(=O)N[C@@H](Cc1ccc(O)cc1)C(=O)N[C@H](C(=O)N[C@@H](CCCNC(=N)N)C(=O)O)CSSC[C@@H]1NC(=O)[C@@H]3CCCN3C(=O)[C@H](C(C)C)NC(=O)[C@H](CCC(N)=O)NC(=O)[C@H](CCC(N)=O)NC(=O)CNC(=O)[C@H](CC(C)C)NC(=O)[C@@H]3CSSC[C@H](NC(=O)[C@H]([C@@H](C)O)NC(=O)[C@H](C)NC(=O)[C@H](C)NC(=O)[C@@H]4CCCN4C(=O)[C@H](CC(=O)O)NC(=O)[C@H](CSSC[C@H](NC(=O)CN)C(=O)N[C@@H](C(C)C)C(=O)N[C@@H](CCCNC(=N)N)C(=O)N[C@@H](CC(C)C)C(=O)N[C@@H](Cc4c[nH]cn4)C(=O)N[C@@H](CCC(=O)O)C(=O)N[C@@H](CO)C(=O)N3)NC1=O)C(=O)N[C@@H](Cc1ccc(O)cc1)C(=O)N2 [7J] (H-GCVRLHESCLGQQVPCCDPAATCYCEGRGDRDMKCYCR-OH; disulfide 2-17, 9-23, 16-37, 25-35; N-terminus and C-terminus assumed) | 8.3 ± 1.8 | 16 ± 8 | – | – | – | – | – |
| CC(C)C[C@@H]1NC(=O)[C@@H]2CSSC[C@@H]3NC(=O)[C@H]([C@@H](C)O)NC(=O)[C@H](C)NC(=O)[C@H](C)NC(=O)[C@@H]4CCCN4C(=O)[C@H](CC(=O)O)NC(=O)[C@H](CSSC[C@H](NC(=O)CN)C(=O)N[C@@H](C(C)C)C(=O)N[C@@H](CCCNC(=N)N)C(=O)N[C@@H](CC(C)C)C(=O)N[C@@H](Cc4c[nH]cn4)C(=O)N[C@@H](CCC(=O)O)C(=O)N[C@@H](CO)C(=O)N2)NC(=O)[C@H](CSSC[C@@H](C(=O)N[C@@H](CCCNC(=N)N)C(=O)O)NC(=O)[C@H](Cc2ccc(O)cc2)NC(=O)[C@@H]2CSSC[C@H](NC(=O)[C@H](Cc4ccc(O)cc4)NC3=O)C(=O)N[C@@H](CO)C(=O)NCC(=O)N[C@@H](CCCNC(=N)N)C(=O)NCC(=O)N[C@@H](CC(=O)O)C(=O)N[C@@H](CC(N)=O)C(=O)N[C@@H](CC(=O)O)C(=O)N[C@@H](CC(C)C)C(=O)N[C@@H](C(C)C)C(=O)N2)NC(=O)[C@@H]2CCCN2C(=O)[C@H](C(C)C)NC(=O)[C@H](CCC(N)=O)NC(=O)[C@H](CCC(N)=O)NC(=O)CNC1=O [7A] (H-GCVRLHESCLGQQVPCCDPAATCYCSGRGDNDLVCYCR-OH; disulfide 2-17, 9-23, 16-37, 25-35; N-terminus and C-terminus assumed) | 0.78 ± 0.37 | 0.89 ± 0.36 | – | – | – | – | 17 |
| CC(C)C[C@@H]1NC(=O)[C@@H]2CSSC[C@@H]3NC(=O)[C@H]([C@@H](C)O)NC(=O)[C@H](C)NC(=O)[C@H](C)NC(=O)[C@@H]4CCCN4C(=O)[C@H](CC(=O)O)NC(=O)[C@H](CSSC[C@H](NC(=O)CN)C(=O)N[C@@H](C(C)C)C(=O)N[C@@H](CCCNC(=N)N)C(=O)N[C@@H](CC(C)C)C(=O)N[C@@H](Cc4c[nH]cn4)C(=O)N[C@@H](CCC(=O)O)C(=O)N[C@@H](CO)C(=O)N2)NC(=O)[C@H](CSSC[C@@H](C(=O)N[C@@H](CCCNC(=N)N)C(=O)O)NC(=O)[C@H](Cc2ccc(O)cc2)NC(=O)[C@@H]2CSSC[C@H](NC(=O)[C@H](Cc4ccc(O)cc4)NC3=O)C(=O)N[C@@H](C(C)C)C(=O)NCC(=O)N[C@@H](CCCNC(=N)N)C(=O)NCC(=O)N[C@@H](CC(=O)O)C(=O)N[C@@H](CC(=O)O)C(=O)N[C@@H](CC(N)=O)C(=O)N[C@@H](CC(C)C)C(=O)N[C@@H](CCCCN)C(=O)N2)NC(=O)[C@@H]2CCCN2C(=O)[C@H](C(C)C)NC(=O)[C@H](CCC(N)=O)NC(=O)[C@H](CCC(N)=O)NC(=O)CNC1=O [7E] (H-GCVRLHESCLGQQVPCCDPAATCYCVGRGDDNLKCYCR-OH; disulfide 2-17, 9-23, 16-37, 25-35; N-terminus and C-terminus assumed) | 1.4 ± 0.5 | 1.6 ± 1.1 | – | – | – | – | – |
